Data taken from publication PMC6270837, “Preparation and Biological Properties of Ring-Substituted Naphthalene-1-Carboxanilides” (Molecules, 2014).
Values joined by “and” are separate entries in the source; they are usually repeats but may differ in a detail not shown here. Identical values can stand only once. Like-named read-outs stand apart in the source and are kept apart here.

How the values were obtained:
[1] = Lipophilicity determination by RP-HPLC (capacity factor, log k); format: physicochemical; settings: end-capped C18, isocratic MeOH 60%/H2O 40%
Experimental: Lipophilicity is a property that has a major effect on bioavailability, biotransformation as well as pharmacological activity, because drugs cross biological membranes through passive transport, which strongly depends on their lipophilicity. Lipophilicity of the studied compounds was determined by RP‑HPLC as capacity factor logarithm (log k). The procedure was performed under isocratic conditions with methanol as an organic modifier in the mobile phase using an end-capped non-polar C18 stationary RP column. The results of ring-substituted naphthalene-1-carboxanilides 1–8c are shown in Table 1 and illustrated in Figure 1. […] Lipophilicity was also calculated as log P using ACD/Percepta ver. 2012 (Advanced Chemistry Development, Inc., Toronto, ON, Canada).
A HPLC system Agilent 1200 equipped with DAD detector (Agilent, USA) was used. A chromatographic column Symmetry® C18 5 μm, 4.6 × 250 mm, Part No. WAT054275 (Waters Corp., Milford, MA, USA) was used. The HPLC separation process was monitored and evaluated by EZChrom Elite software ver. 3.3.2 (Agilent, USA). Isocratic elution by a mixture of MeOH p.a. (60%) and H2O-HPLC Mili-Q grade (40%) as a mobile phase was used. The total flow of the column was 1.0 mL/min, injection 20 μL, column temperature 40 °C, and sample temperature 10 °C. The detection wavelength 210 nm was chosen. The KI methanolic solution was used for the dead time (tD) determination. Retention times (tR) were measured in minutes. The capacity factors k were calculated according to formula k = (tR − tD)/tD, where tR is the retention time of the solute, whereas tD denotes the dead time obtained using an unretained analyte. Log k, calculated from the capacity factor k, is used as the lipophilicity index converted to log P scale.

[2] = Solubility in PET tested medium; format: physicochemical; settings: PET assay medium, phosphate buffer pH 7.2, DMSO up to 4%
Experimental: (§1) Chloroplasts were prepared from spinach (Spinacia oleracea L.) according to Masarovicova and Kralova. The inhibition of photosynthetic electron transport (PET) in isolated spinach chloroplasts was determined spectrophotometrically (Genesys 6, Thermo Scientific, USA), using an artificial electron acceptor 2,6-dichlorophenol-indophenol (DCIPP) according to Kralova et al., and the rate of photosynthetic electron transport was monitored as a photoreduction of DCPIP. The measurements were carried out in phosphate buffer (0.02 mol/L, pH 7.2) containing sucrose (0.4 mol/L), MgCl2 (0.005 mol/L) and NaCl (0.015 mol/L). The chlorophyll content was 30 mg/L in these experiments and the samples were irradiated (~100 W/m^2 with 10 cm distance) with a halogen lamp (250 W) using a 4 cm water filter to prevent warming of the samples (suspension temperature 22 °C). The studied compounds were dissolved in DMSO due to their limited water solubility. […] The inhibitory efficiency of the studied compounds was expressed by IC50 values, i.e., by molar concentration of the compounds causing 50% decrease in the oxygen evolution rate relative to the untreated control.

[3] = test system: photosynthetic electron transport (PET) in isolated spinach chloroplasts; assay: Inhibition of photosynthetic electron transport (PET) in isolated spinach chloroplasts; format: biochemical, Spinacia oleracea L.; settings: DCPIP photoreduction
Experimental: The PET-inhibiting activity was expressed by IC50 value, i.e., compound concentration in mol/L causing 50% inhibition of PET.
as §1

[4] = test system: Mycobacterium avium subsp. paratuberculosis CIT03; assay: In vitro antimycobacterial evaluation (MIC/IC90, alamarBlue); format: cell-based; settings: for MIC: Mycobacterium avium
Experimental: The MIC/IC90 value is routinely and widely used in bacterial assays and is a standard detection limit according to the Clinical and Laboratory Standards Institute.
A well-characterized clinical isolate of Mycobacterium avium subsp. paratuberculosis (CIT03) was grown in Middlebrook broth (MB), supplemented with Oleic-Albumin-Dextrose-Catalase supplement (OADC, Becton, Dickinson and Comp., Franklin Lakes, NJ, USA) and mycobactin J (2 µg/mL). Identification of this isolate was performed using biochemical and molecular protocols. At log phase growth, a culture sample (10 mL) was centrifuged at 15,000 rpm/20 min using a bench top centrifuge (Model CR 4-12, Jouan Inc., Winchester, VA, USA). Following removal of the supernatant, the pellet was washed in fresh Middlebrook 7H9GC broth and re-suspended in fresh supplemented MB (10 mL). The turbidity was adjusted to match McFarland standard No. 1 (3 × 10^8 cfu) with MB broth. A further 1:20 dilution of the culture was then performed in MB broth. The antimicrobial susceptibility of the mycobacterial species was investigated in a 96-well plate format. In these experiments, sterile deionized water (300 µL) was added to all outer-perimeter wells of the plates to minimize evaporation of the medium in the test wells during incubation. Each evaluated compound (100 µL) was incubated with the mycobacterial species (100 µL). Dilutions of each compound were prepared in duplicate. For all synthesized compounds, final concentrations ranged from 1,000 µg/mL to 8 µg/mL. All compounds were prepared in DMSO and subsequent dilutions were made in supplemented MB. The plates were sealed with parafilm and incubated at 37 °C for 11 days.
Following incubation, a 10% addition of alamarBlue (AbD Serotec, Kidlington, UK) was mixed into each well and readings at 570 nm and 600 nm were taken, initially for background subtraction and subsequently after 24 h re-incubation. […] For non-interfering compounds, a blue colour in the well was interpreted as an absence of growth and a pink colour was scored as growth. Furthermore percent reduction of alamarBlue was calculated to generate quantitative data on cell viability during exposure to antimycobacterial compounds over a period of 5 days. The formula used to determine percent reduction of alamarBlue has been standardized for colorimetric analysis by Abd Serotec.
The MIC value is routinely and widely used in bacterial assays and is a standard detection limit according to the Clinical and Laboratory Standards Institute.

[5] = 264 h, clinical isolate CIT03, 11 days at 37 °C, alamarBlue, MIC = 90% or greater reduction of growth, read-out: MAP MIC/IC90

| Compound | log k [1] | solubility in tested medium (PET experiments) [2] | IC50 [3] | also measured |
| --- | --- | --- | --- | --- |
| O=C(Nc1ccccc1)c1cccc2ccccc12 [Compound 1, N-Phenylnaphthalene-1-carboxamide] | 0.5620 |  |  |  |
| COc1ccc(NC(=O)c2cccc3ccccc23)cc1 [Compound 2c, N-(4-Methoxyphenyl)naphthalene-1-carboxamide] | 0.4953 |  |  |  |
| Cc1ccccc1NC(=O)c1cccc2ccccc12 [Compound 3a, N-(2-Methylphenyl)naphthalene-1-carboxamide] | 0.5309 |  |  |  |
| O=C(Nc1ccccc1F)c1cccc2ccccc12 [Compound 4a, N-(2-Fluorophenyl)naphthalene-1-carboxamide] | 0.5592 | precipitation |  |  |
| O=C(Nc1ccc(F)cc1)c1cccc2ccccc12 [Compound 4c, N-(4-Fluorophenyl)naphthalene-1-carboxamide] | 0.6315 | precipitation |  |  |
| O=C(Nc1ccccc1Cl)c1cccc2ccccc12 [Compound 5a, N-(2-Chlorophenyl)naphthalene-1-carboxamide] | 0.8322 | precipitation |  |  |
| O=C(Nc1cccc(Cl)c1)c1cccc2ccccc12 [Compound 5b, N-(3-Chlorophenyl)naphthalene-1-carboxamide] | 0.9357 |  | 107 µM |  |
| O=C(Nc1ccc(Cl)cc1)c1cccc2ccccc12 [Compound 5c, N-(4-Chlorophenyl)naphthalene-1-carboxamide] | 0.9223 |  | 102 µM |  |
| O=C(Nc1ccccc1Br)c1cccc2ccccc12 [Compound 6a, N-(2-Bromophenyl)naphthalene-1-carboxamide] | 0.8892 | precipitation |  |  |
| O=C(Nc1cccc(Br)c1)c1cccc2ccccc12 [Compound 6b, N-(3-Bromophenyl)naphthalene-1-carboxamide] | 1.0047 | limited solubility | 278 µM |  |
| O=C(Nc1ccc(Br)cc1)c1cccc2ccccc12 [Compound 6c, N-(4-Bromophenyl)naphthalene-1-carboxamide] | 0.9985 | limited solubility | 365 µM | MIC [4, 5]: 184 µM |
| O=C(Nc1ccccc1C(F)(F)F)c1cccc2ccccc12 [Compound 7a, N-[2-(Trifluoromethyl)phenyl]naphthalene-1-carboxamide] | 0.7595 | precipitation |  |  |
| O=C(Nc1cccc(C(F)(F)F)c1)c1cccc2ccccc12 [Compound 7b, N-[3-(Trifluoromethyl)phenyl]naphthalene-1-carboxamide] | 1.0862 |  | 114 µM |  |
| O=C(Nc1ccc(C(F)(F)F)cc1)c1cccc2ccccc12 [Compound 7c, N-[4-(Trifluoromethyl)phenyl]naphthalene-1-carboxamide] | 1.1480 |  | 59 µM | MIC [4, 5]: 793 µM |
| O=C(Nc1ccccc1[N+](=O)[O-])c1cccc2ccccc12 [Compound 8a, N-(2-Nitrophenyl)naphthalene-1-carboxamide] | 0.9090 | limited solubility | 476 µM |  |
| O=C(Nc1cccc([N+](=O)[O-])c1)c1cccc2ccccc12 [Compound 8b, N-(3-Nitrophenyl)naphthalene-1-carboxamide] | 0.8155 | limited solubility | 492 µM |  |
| O=C(Nc1ccc([N+](=O)[O-])cc1)c1cccc2ccccc12 [Compound 8c, N-(4-Nitrophenyl)naphthalene-1-carboxamide] | 0.7328 |  | 129 µM |  |
| CN(C)C(=O)Nc1ccc(Cl)c(Cl)c1 [DCMU, 3-(3,4-dichlorophenyl)-1,1-dimethylurea, reference compound] |  |  | ~1.9 µM and 1.9 µM |  |
| NNC(=O)c1ccncc1 [INH, isoniazid, reference compound] |  |  |  | MIC [4, 5]: 1820 µM |
| CO[C@H]1/C=C/O[C@@]2(C)Oc3c(C)c(O)c4c(O)c(c(/C=N/N5CCN(C)CC5)c(O)c4c3C2=O)NC(=O)/C(C)=C\C=C\[C@H](C)[C@H](O)[C@@H](C)[C@@H](O)[C@@H](C)[C@H](OC(C)=O)[C@@H]1C [RIF, rifampicin, reference compound] |  |  |  | MIC ([4]; 264 h, read-out: MAP MIC/IC90): 109 µM; MIC ([4]; clinical isolate CIT03, read-out: MIC): 90 µg/mL; MAP MIC/IC90 ([4]; clinical isolate CIT03, 11 days at 37 °C, alamarBlue, MIC = 90% or greater reduction of growth): 109 µM |
